≈ marks a conversion by molar mass, not a printed value. Entries after “also recorded” stand apart in the source; their conditions may differ. Like-named read-outs stand apart in the source and are kept apart here.

In one data set the test system is P. aeruginosa. Set-up: method as in PMID 24801877. The following applies: previous work, different culture medium and inoculum possible; cited from earlier work.
Data set [1] concerns wild-type P. aeruginosa PAO1. Nature of the data set: Biofilm inhibition assay (OD600 growth and resazurin biofilm viability). The format is cell-based, Pseudomonas aeruginosa. As for the experimental part:
(§1) Figure 2 Biofilm assays to identify compounds that prevent biofilm formation. Biofilm inhibition assay. P. aeruginosa cultures were seeded into 384-well plates after dispensing compounds and antibiotics. The plates were incubated for 24 h at 37 °C followed by recording bacterial growth (OD600) and measuring the viability of biofilm bacteria using resazurin.
(§2) The overnight cultures at 37 °C in LB medium were washed once with sterile saline 0.9% (w/v) and adjusted to an OD600 of 0.05, and 1% inoculum was transferred into a fresh LB medium. Following incubation at 37 °C, 200 rpm for 6–6.5 h to reach the mid-log phase, the cells were washed once with sterile saline 0.9% and diluted to an OD600 of 0.01. Then, 45 µL aliquots were dispensed into 384-well plates (Greiner Bio-One, Kremsmünster, Austria, catalog no. 781091). In biofilm inhibition assays, test compounds (5 µL) were loaded prior to the addition of bacteria. The plates were incubated for 24 h at 37 °C in static conditions. The effects of compounds on bacterial growth and viability of biofilm bacteria were determined by the OD600 and resazurin metabolic assay, respectively. The final concentrations of DMSO in the assays were 1–2%. The negative controls or untreated cultures consisted of inoculum and different concentrations of DMSO. Antibiotic ciprofloxacin (0.25 µg/mL and 25 µg/mL) was used as positive controls. The initial OD600 and final OD600 were read before incubation at 37 °C and after 24 h incubation, respectively, followed by assessment of biofilm viability by resazurin metabolic assay. The experiments were carried out with three technical replicates and repeated at least twice. The growth inhibition was calculated as a function of the percentage of the total bacterial inhibition using Equation (1), where AB is the OD600 of LB medium, and AT0 and ATf are the OD600 recorded at inoculating time and at the end of the assay. (1) % Inhibition=100 × [ 1 − [OD600 (Asample Tf− Asample T0)−(AB Tf − AB T0)/OD600 (Anegative control Tf− Anegative control T0)−(AB Tf − AB T0)]]
(§3) Resazurin sodium salt (Sigma-Aldrich, St. Louis, MI, USA) was dissolved in Milli-Q water at 0.2% (w/v) and filter sterilized. The solution was stored at −20 °C in the dark. The assay was performed as previously described with modification. The cultures were withdrawn, and the plates were washed three times with sterile water using the plate washer (BioTek). To remove the remaining water in the wells, the plates were tapped with autoclaved paper towels. An amount of 50 µL of diluted RSZ solution in LB medium was added into each well, followed by incubation at 37 °C for 5–6 h. A microplate reader (BioTek Synergy 2) was used to measure the fluorescence intensity (excitation 530 nm, emission 590 nm). Data collected were determined as a function of fluorescence percentage using Equation (2), where FB is the fluorescence of the diluted RSZ solution in LB medium in the absence of P. aeruginosa cells. (2) % Inhibition=[(Fnegative control −FB )−(Fsample −FB )/(Fnegative control − FB )]×100
Background: Resazurin is reduced to fluorescent resorufin, in cell work by metabolically active cells.

The subject of data set [2] is PDO300Δalg8 (alginate deletion mutant). The description is as above. The format is cell-based, Pseudomonas aeruginosa. As for the experimental part: as §1, §2, §3
For data set [3], the system named is PDO300 (mucoid, alginate-overproducing mutant). The description is as above. The format is cell-based, Pseudomonas aeruginosa. As for the experimental part: as §1, §2, §3
Data set [4] has as its system PAO1ΔpelF (Pel deletion mutant). The data set is described as above. The format is cell-based, Pseudomonas aeruginosa. As for the experimental part:
as §1, §2, §3

A short description of data set [5]: Stability in liver microsomes. The following applies: for hepatic extraction: calculated from microsomal half-life, fu = 1 assumed; for level of hepatic extraction: classification system of Houston 1994; for half-life at 1 µM: male, CD-1, mouse, liver microsomes. The format is in vitro ADME, mouse. How it is done: The metabolic assays were performed based on a previously described method. […] The final organic (ACN) concentration in the incubation tubes was 1%. […] Samples (50 μL) were removed at t = 0 (immediately after reaction start), 5, 10, 20, 30, and 60 min. Samples were added to microcentrifuge tubes containing 150 μL of ice-cold acetonitrile containing internal standard (clotrimazole; for […] = 10.0 ng/mL + 0.5% (v/v) formic acid; for 1 and 2 = 2.0 ng/mL + 0.5% (v/v) formic acid; for VPL = 20.0 ng/mL + 0.1% (v/v) formic acid). Tubes were centrifuged (13,000× g, 5 min), and ~135 μL of supernatant transferred to polypropylene 96-well plates for analysis.
Chromatographic separation was achieved using a biphenyl column [Kinetix, 100 mm × 4.6 mm, 2.6 μm; Phenomenex (Sydney, Australia)], coupled with a gradient elution with mobile phases containing acetonitrile/H2O/0.5% formic acid. Analysis was conducted in positive ion multiple reaction monitoring (MRM) mode with argon as the collision gas. Optimum MS/MS conditions were established prior to incubations by direct infusion of individual solutions of 1, 2, and 3 into the LC-MS/MS. To ensure adequate sensitivity of analysis, multiple mass transitions were summed for all three test compounds.
LN % remaining vs. time data for each data set were fitted to an exponential decay function to determine the first-order rate constant (k) for substrate depletion. For Equations (5)–(7), scaling parameters used were described elsewhere.

A further data set relates to PAO1ΔpelF biofilms. The format is cell-based, Pseudomonas aeruginosa. How it is done:
Biofilms of wild-type PAO1 and isogenic biofilm matrix component mutants were treated with ianthelliformisamines or ciprofloxacin alone and the combinations. Their biofilms were simultaneously stained with SYTO9 (green) and propidium iodide (red). Cells with intact membranes were stained green, while cells with compromised membranes were stained red.
For biofilm bacteria imaging, bacteria were cultured, treated with test compounds, and washed, as previously mentioned in the biofilm inhibition assay. The biofilm bacteria were stained using a LIVE/DEAD BacLight bacterial viability kit (Molecular Probes, Inc., Eugene, OR, USA), which consists of SYTO9 (green; staining cells with intact membrane) and propidium iodide (red; staining cells with compromised membrane). Images were captured using a high-content imaging system Operetta CLS (Perkin Elmer, Waltham, MA, USA) with a 60× water-immersion objective.

Setting [6] is: compound 86.2 µg/mL + ciprofloxacin 1/3 MIC (0.083 µg/mL), 24 h.
Where [7] appears, read: pH 7.4, no NRS, compound 1 between 20 and 60 min, compound 2 over 30 min, read-out: half-life of degradation, negative control (no NRS added).
Where [8] appears, read: pH 7.4, with NADPH regeneration system, 1.0 µM, 0.5 mg/mL microsomes, read-out: half-life of degradation.
[9] abbreviates: compound 69.1 µg/mL + ciprofloxacin 1/4 MIC (0.0625 µg/mL).

Turning to `COc1c(Br)cc(/C=C/C(=O)NCCCNCCCCNCCCNC(=O)/C=C/c2cc(Br)c(OC)c(Br)c2)cc1Br` [Compound 3, ianthelliformisamine C], in the data set with P. aeruginosa, the MIC – broadly, the lowest concentration found to suppress growth – was ~ 26.55 µg/mL. Further, the “synergistic interaction with ciprofloxacin, planktonic forms and biofilms” value in data set [1] (compound 53.1 µg/mL) and in data set [4] (compound 53.1 µg/mL) was “negligible synergistic interactions” each time. Also, the planktonic growth inhibition entry in data set [1] (compound alone 106.2 µg/mL) and in data set [4] (compound alone 106.2 µg/mL) was “independently inhibited planktonic growth” throughout. The “killing of biofilm bacteria” value in data set [1] (compound alone, 24 h) is given as no more than 60%. Moreover, the “killing of free-living bacteria” value in data set [1] (compound alone, 24 h) is on record as “up to 30%”. Moreover, the “effect on free-living cells” value in data set [2] (compound alone) and in data set [3] (compound alone) was “eradicated” each time. Moreover, the entries for the “reduction of biofilm viability” value in data set [2] (compound alone) and in data set [3] (compound alone) were 80% and ~ 100%, respectively. The “biofilm response (reduction)” value in data set [4] (combinations of compound with ciprofloxacin) was ~ 60%; in data set [4] (compound alone 106.2 µg/mL), ~ 40%. For the same molecule, in data set [4] (compound 106.2 µg/mL, ciprofloxacin 1/4 MIC), the “interaction with ciprofloxacin on biofilm” value is reported as “antagonized”. Moreover, the metabolic stability result in data set [5] is listed as “metabolically stable”. Besides, in the data set on PAO1ΔpelF biofilms, the “effect in combination with ciprofloxacin” value is “no effect”. Further, the biofilm after treatment entry in the data set on PAO1ΔpelF biofilms (compound alone) was “no effect”.

Turning to `COc1c(Br)cc(/C=C/C(=O)NCCCNCCCCNCCCN)cc1Br` [Compound 1, ianthelliformisamine A], the MIC with P. aeruginosa was 172.4 µg/mL (≈ 331 µM). Besides, in data set [1] (setting [6]), the growth disruption is recorded as greater than 90% and the “prevention of biofilm formation” value was greater than 90%. In data set [1] (compound alone, 24 h), the “antimicrobial activity / prevention of biofilm formation” value was “did not yield any antimicrobial activity and/or prevented biofilm formation”. Further, in data set [2], the “activity against biofilm bacteria” value is on record as less than 60% and the “effect on planktonic counterparts” value is reported as “significant death”. Moreover, in data set [3] (compound 43.1 µg/mL + ciprofloxacin 1/3 and 1/4 MICs), the biofilm effect result is “approximately 100%”. The biofilm effect in data set [3] (compound alone at 43.1 µg/mL) was 20%. For the same molecule, the growth inhibition in data set [3] (compound alone at 43.1 µg/mL and 86.2 µg/mL) is greater than 70%. For the same molecule, in data set [3] (compound alone at 86.2 µg/mL), the “reduction of biofilm formation” value is on record as ~ 80%. For the same molecule, in data set [4] (setting [6]), the growth disruption is reported as greater than 90% and the “prevention of biofilm formation” value is on record as greater than 90%. Further, in data set [5], the metabolic stability result is “moderate degradation”, the hepatic extraction is on record as 0.48 and the “level of hepatic extraction” value is on record as “intermediate”. Besides, the half-life (in general, how long it takes for the measured level to halve) at 1 µM in data set [5] (setting [7]) is roughly 45 min. Besides, the half-life at 1 µM in data set [5] (setting [8]) was 38.2 min. Besides, in the data set on PAO1ΔpelF biofilms, the “effect in combination with ciprofloxacin” value is listed as “synergistic effects”.

Turning to `COc1c(Br)cc(/C=C/C(=O)NCCCNCCCCN)cc1Br` [Compound 2, ianthelliformisamine B], the MIC with P. aeruginosa was greater than 138.2 µg/mL. In addition, the “growth inhibition and antibiofilm activity” value in data set [1] (setting [9]) is “caused growth inhibition and antibiofilm activity”; in data set [4] (setting [9]), “caused growth inhibition and antibiofilm activity”. Further, in data set [1] (compound alone, 24 h), the “antimicrobial activity / prevention of biofilm formation” value is “did not yield any antimicrobial activity and/or prevented biofilm formation”. Besides, the survival compromised in data set [2] (compound + ciprofloxacin at 1/3 MIC) is on record as 60%; in data set [2] (compound + ciprofloxacin at 1/4 MIC) it was 40%. Further, in data set [2] (compound + ciprofloxacin at 1/4 and 1/3 MIC), the susceptibility of biofilms result is on record as “much less susceptible”. The “blockage of cellular progression (growth)” value is given as greater than 50% in data set [3] (compound alone); greater than 70% in data set [3] (in the presence of ciprofloxacin at 1/3 and 1/4 MICs). In addition, the “improvement of biofilm suppression by addition of ciprofloxacin” value stood at 20% in data set [4] (ciprofloxacin 1/3 MIC added) and 13% in data set [4] (ciprofloxacin 1/4 MIC added). Also, the metabolic stability result in data set [5] is “moderate degradation; also recorded: moderately degraded”. The hepatic extraction in data set [5] is given as 0.42. Moreover, the “level of hepatic extraction” value in data set [5] is “intermediate”. In addition, the results for the half-life at 1 µM in data set [5] (setting [7]) and in data set [5] (setting [8]) were 90 min and 42.8 ± 7.6 min, respectively. Further, the “effect in combination with ciprofloxacin” value in the data set on PAO1ΔpelF biofilms is on record as “synergistic effects”.

The values are drawn from paper PMC10299588, “Bromotyrosine-Derived Metabolites from a Marine Sponge Inhibit Pseudomonas aeruginosa Biofilms” (International Journal of Molecular Sciences, 2023).
